{"source": "patent US9441012B2", "about": "“Fluorinated epoxyketone-based compounds and uses thereof as proteasome inhibitors” (FLUORINOV PHARMA INC., priority 2012, dated 2016)", "key": {"CCRF-CEM": {"tested_on": "CCRF-CEM", "assay": "NCI 60 human tumor cell line screen (SRB)", "format": "cell-based", "conditions": "CCRF-CEM (Leukemia); 48 h"}, "MOLT-4": {"tested_on": "MOLT-4", "assay": "NCI 60 human tumor cell line screen (SRB)", "format": "cell-based", "conditions": "MOLT-4 (Leukemia); 48 h"}, "HOP-62": {"tested_on": "HOP-62", "assay": "NCI 60 human tumor cell line screen (SRB)", "format": "cell-based", "conditions": "HOP-62 (Non-Small Cell Lung Cancer); 48 h"}, "NCI-H460": {"tested_on": "NCI-H460", "assay": "NCI 60 human tumor cell line screen (SRB)", "format": "cell-based", "conditions": "NCI-H460 (Non-Small Cell Lung Cancer); 48 h"}, "NCI-H522": {"tested_on": "NCI-H522", "assay": "NCI 60 human tumor cell line screen (SRB)", "format": "cell-based", "conditions": "NCI-H522 (Non-Small Cell Lung Cancer); 48 h"}, "SK-MEL-2": {"tested_on": "SK-MEL-2", "assay": "NCI 60 human tumor cell line screen (SRB)", "format": "cell-based", "conditions": "SK-MEL-2 (Melanoma); 48 h"}, "CAKI-1": {"tested_on": "CAKI-1", "assay": "NCI 60 human tumor cell line screen (SRB)", "format": "cell-based", "conditions": "CAKI-1 (Renal Cancer); 48 h"}, "RXF 393": {"tested_on": "RXF 393", "assay": "NCI 60 human tumor cell line screen (SRB)", "format": "cell-based", "conditions": "RXF 393 (Renal Cancer); 48 h"}, "SN12C": {"tested_on": "SN12C", "assay": "NCI 60 human tumor cell line screen (SRB)", "format": "cell-based", "conditions": "SN12C (Renal Cancer); 48 h"}, "T-47D": {"tested_on": "T-47D", "assay": "NCI 60 human tumor cell line screen (SRB)", "format": "cell-based", "conditions": "T-47D (Breast Cancer); 48 h"}, "KMS-11": {"tested_on": "KMS-11", "assay": "Cell viability assay (MTS)", "format": "cell-based", "conditions": "Homo sapiens, 72 hours, mean ± standard deviation", "experimental": "(§1) Human multiple myeloma cell lines 8226, H929, JJN3, KMH11, KMS11, KMS18, LP1, MM1S, OPM2 and U266 were grown in Iscove modified Dulbecco's medium (IMDM). Human leukemia cell lines K562, OCI-AML2 and U937 were cultured in RPMI-1640 medium. Primary peripheral blood mononuclear cells were isolated from multiple myeloma patients by Ficoll density gradient centrifugation and bone marrow aspirates were obtained from multiple myeloma patients at the Princess Margaret Cancer Centre of the University Health Network (UHN; Toronto, ON, Canada). Primary cells were cultured in IMDM. The collection and use of human tissue for this study were approved by the UHN institutional ethics review board. All cell culture media were obtained from the Ontario Cancer Institute Tissue Culture Media Facility (Toronto, ON, Canada) and were supplemented with 10% fetal calf serum, […] (Hyclone, Logan, Utah). All cells were grown in a humidified incubator at 37° C. with 5% CO2.\n(§2) Cellular viability was primarily assessed by 3-(4,5-dimethylthiazol-2-yl)-5-(3-carboxymethoxyphenyl)-2-(4-sulfophenyl)-2H-tetrazolium (MTS) assay according to the manufacturer's instructions (Promega; Madison, Wis.). Cells were first seeded at a density of 10,000 cells per well in tissue culture-treated 96-well plates. Two hours after seeding, cells were treated with compounds for 72 hours at concentrations as indicated. As a control, cells were treated with DMSO alone in every assay plate. Following treatment and the MTS assay, cell viability was independently confirmed by reading the optical density (O.D.) at 490 nm and by exclusion of trypan blue stain (Invitrogen; Burlington, ON, Canada). The viability of primary mononuclear cells was determined by staining with Annexin V.\n(§3) Table 9 summarizes data obtained for representative compounds of Formula I for cell viability and CT-L proteasome activity using OCI-AML-2 and KMS-11 cell lines."}, "OCI-AML-2": {"tested_on": "OCI-AML-2", "assay": "Cell viability assay (MTS)", "format": "cell-based", "conditions": "Homo sapiens, OCI-AML2, 72 hours, mean ± standard deviation", "experimental": "as §1, §2, §3"}, "[1]": {"tested_on": "chymotrypsin-like (CT-L) proteasome activity, KMS-11", "assay": "Proteasome enzymatic activity (tumor cell lysates)", "format": "biochemical, human", "conditions": "KMS-11 cell lysate; mean ± standard deviation", "experimental": "(§4) Cells were harvested by centrifugation at 1,200 rpm at room temperature. Cell pellets were washed with PBS and lysed with assay lysis buffer (50 mM HEPES (N-2-hydroxyethylpiperazine-N′-2-ethanesulfonic acid), pH 7.5; 150 mM NaCl; 1% Triton X-100; 2 mM ATP). Cell lysates were incubated on ice for 30 minutes, mixed by vortex every 5 minutes, and then centrifuged at 12,000 g for 10 minutes. The supernatant was transferred to a 96-well plate. For each assay, 10 μg of total protein were incubated for 1 hour at 37° C. with increasing concentrations (1 nM to 10 μM) of test compound diluted in assay buffer (50 mM Tris-HCl (tris(hydroxymethyl)aminomethane-HCl), pH 7.5; 150 mM NaCl). DMSO alone was used as a control in every assay plate. After incubation, a specific fluorogenic proteasome substrate was added to each assay reaction at a final concentration of 40 μM in a total volume of 100 μL. N-Succinyl-Leu-Leu-Val-Tyr-7-amino-4-methylcoumarin (Suc-Leu-Leu-Val-Tyr-AMC) was used for measuring chymotrypsin-like (CT-L) activity, t-butoxycarbonyl-Leu-Arg-Arg-7-amino-4-methylcoumarin (Boc-Leu-Arg-Arg-AMC) for trypsin-like (T-L) activity, and benzyloxycarbonyl-L-leucyl-L-leucyl-L-glutamyl-7-amino-4-methylcoumarin (Z-Leu-Leu-Glu-AMC) for caspase-like (C-L) activity. The excitation wavelength was set at 360 nm and the fluorescence emission wavelength of AMC was detected at 460 nm. The fluorescence of free AMC released during the enzymatic reaction was measured with a SpectraMax M5 fluorescent spectrophotometric plate reader (Molecular Devices, Sunnyvale, Calif.). AMC release rate was measured at 37° C. in a kinetic mode, recording every 5 minutes for 30 minutes. Experiments were performed in triplicate and repeated at least twice.\nas §3"}, "[2]": {"tested_on": "chymotrypsin-like (CT-L) proteasome activity, OCI-AML-2", "assay": "Proteasome enzymatic activity (tumor cell lysates)", "format": "biochemical, human", "conditions": "OCI-AML-2 cell lysate; mean ± standard deviation", "experimental": "as §4, §3"}}, "data": [{"smiles": "C[C@]1(C(=O)[C@H](Cc2ccccc2)NC(=O)[C@H](Cc2ccccc2)NC(=O)[C@H](COC(F)F)NC(=O)CN2CCOCC2)CO1", "note": "[Example 29]", "values": [{"measurement": "Log10GI50", "setting": "CCRF-CEM", "result": "−7.62"}, {"measurement": "Log10LC50", "setting": "CCRF-CEM", "result": ">−4.00"}, {"measurement": "Log10TGI50", "setting": "CCRF-CEM", "result": ">−4.00"}, {"measurement": "Log10GI50", "setting": "MOLT-4", "result": "−7.54"}, {"measurement": "Log10LC50", "setting": "MOLT-4", "result": ">−4.00"}, {"measurement": "Log10TGI50", "setting": "MOLT-4", "result": "−7.05"}, {"measurement": "Log10GI50", "setting": "HOP-62", "result": "−7.31"}, {"measurement": "Log10LC50", "setting": "HOP-62", "result": "−4.32"}, {"measurement": "Log10TGI50", "setting": "HOP-62", "result": "−6.53"}, {"measurement": "Log10GI50", "setting": "NCI-H460", "result": "−6.49"}, {"measurement": "Log10LC50", "setting": "NCI-H460", "result": ">−4.00"}, {"measurement": "Log10TGI50", "setting": "NCI-H460", "result": "−5.87"}, {"measurement": "Log10GI50", "setting": "NCI-H522", "result": "−6.90"}, {"measurement": "Log10LC50", "setting": "NCI-H522", "result": ">−4.00"}, {"measurement": "Log10TGI50", "setting": "NCI-H522", "result": "−6.17"}, {"measurement": "Log10GI50", "setting": "SK-MEL-2", "result": "−7.19"}, {"measurement": "Log10LC50", "setting": "SK-MEL-2", "result": ">−4.00"}, {"measurement": "Log10TGI50", "setting": "SK-MEL-2", "result": "−6.02"}, {"measurement": "Log10GI50", "setting": "CAKI-1", "result": "−6.56"}, {"measurement": "Log10LC50", "setting": "CAKI-1", "result": ">−4.00"}, {"measurement": "Log10TGI50", "setting": "CAKI-1", "result": "−5.94"}, {"measurement": "Log10GI50", "setting": "RXF 393", "result": "−7.20"}, {"measurement": "Log10LC50", "setting": "RXF 393", "result": "−6.31"}, {"measurement": "Log10TGI50", "setting": "RXF 393", "result": "−6.70"}, {"measurement": "Log10GI50", "setting": "SN12C", "result": "−6.92"}, {"measurement": "Log10LC50", "setting": "SN12C", "result": "−4.39"}, {"measurement": "Log10TGI50", "setting": "SN12C", "result": "−6.38"}, {"measurement": "Log10GI50", "setting": "T-47D", "result": "−7.16"}, {"measurement": "Log10TGI50", "setting": "T-47D", "result": "−6.62"}, {"measurement": "IC50", "setting": "KMS-11", "result": "60.4 ± 11.2", "unit": "nM"}, {"measurement": "IC50", "setting": "OCI-AML-2", "result": "75.9 ± 15", "unit": "nM"}, {"measurement": "IC50", "setting": "[1]", "result": "135 ± 12.3", "unit": "nM"}, {"measurement": "IC50", "setting": "[2]", "result": "132 ± 10.4", "unit": "nM"}]}]}
